Assays:
[1] = system: psoriasis-induced xenotransplants (human skin grafted on beige-SCID mice, injected with PBMC's from psoriatic patients); experiment: Efficacy study in psoriasis-induced human skin xenotransplants on beige-SCID mice, histological evaluation; type: in vivo; conditions: topical treatment for 14 days (Day 42-56), histology at Day 56
Excerpt: The objective of this study was to determine the efficacy of Roflumilast as provided herein (at Examples 4 and 5) compared to the vehicle and Dexamethasone as shown at the Table 3. The evaluation was based on histology analysis following application of the respective test formulations.
The efficacy study has been conducted on female mice. The total duration of the experiment was 8 weeks, upon receiving of the human skin. Normal skin from healthy volunteers were obtained for grafting. Healthy human abdominal skin pieces with a width of 0.4 mm and surface area of 1.5×1.5 cm were provided. The skin sample was preserved in isotonic saline solution and transplanted within 6-12 hours after skin donation. In addition, blood samples were collected from psoriatic patients having classic plaque psoriasis and not undergoing any treatment. 20 mL blood samples were taken from both males and females psoriatic patients (from psoriatic patients having classic plaque psoriasis and not undergoing any treatment), and peripheral blood mononuclear cells (PBMC) were separated immediately after blood withdrawal.
Mice: Beige-severe combined immunodeficient mice C.B-17/IcrHsdscid-bg (beige-SCID) mice (weight ˜25 g) were included in this study. Mice were monitored twice a week for vital signs such as weight, food intake, coat, eyes, anal genital areas, discharge/soiling, behavior and criteria related to skin transplantation. Normal healthy human donor skin were transplanted onto the beige-SCID mice as previously described (See Keren A. et al., Novel nanosome delivery system combined with siRNA targeting the antimicrobial gene DFB4: a new approach for psoriasis management? Exp Dermatol. 2014; 23:464-465; Bracke S. et al., Targeted silencing of DEFB4 in a bioengineered skin-humanized mouse model for psoriasis: development of siRNA SECosome-based novel therapies. Exp Dermatol. 2014 ;23:199-201; Zaretsky M. et al., Directed evolution of a soluble human IL-17A receptor for the inhibition of psoriasis plaque formation in a mouse model. Chem Biol. 2013 21; 20:202-2; Gilhar A. et al., The beneficial effect of blocking Kv1.3 in the psoriasiform SCID mouse model. J Invest Dermatol. 2011;131:118 124; Keren A. et al., Innate lymphoid cells 3 induce psoriasis in xenotransplanted healthy human skin. J Allergy Clin Immunol. 2018;142:305-308.e6.).
British Journal of Pharmacology 2010; 159:842-855).
Four weeks following the engraftment, each mouse was injected (intradermally) with 1×10^7 IL-2 enriched allogeneic PBMC's from psoriatic patients (1×10^7 cells injected/mouse). Cells from different psoriasis patients were equally distributed between treatment groups. Each patient was represented in each treatment group.
Fourteen days following cells injections, the mice were divided into treatment groups (Table 4, see below) and treated according to the timeline indicated below (see Scheme 1). Each transplant was equally topically treated (50 μg) by using a sterile spatula.
Dexamethasone (D2915, Sigma): was freshly prepared for each administration by dilution in saline to final concentration (50 mg/ml). Dexamethasone serves as a positive control and was administered topically twice daily for 14 days following cells injections (at Day 42 following human skin transplantation) until the end of the study (Day 56).
The vehicle was administered topically (50 μg) once daily for 14 days as well.
On Day 56, the entire skin graft was excised and placed in 10% formaldehyde in saline overnight. Then, the specimens were placed in 70% ethanol and embedded and stained according to the standard Hematoxylin/Eosin protocol.
Skin graft histological assessment was performed (according to the psoriatic criteria including epidermal thickness) using light microscopy, and two observers blindly performed the evaluations. Epidermal thickness was determined using an ocular micrometer at a minimum of 50 points along the epidermis selected to represent points of maximal and minimal thickness. […]

[2] = according to the roflumilast DrugBank monograph; cited from earlier work
[3] = number of grafts/mice out of 10

Question: Which results are given for `C[C@@H]1C[C@H]2[C@@H]3CCC4=CC(=O)C=C[C@]4(C)[C@@]3(F)[C@@H](O)C[C@]2(C)[C@@]1(O)C(=O)CO` [Dexamethasone]?
Answer: Complete Recovery [1, 3]: 9/10; Partial Recovery [1, 3]: 1/10; Psoriatic Features [1, 3]: 0/10; Complete Recovery (%) ([1]; percent of grafts/mice): (90%); Partial Recovery (%) ([1]; percent of grafts/mice): (10%); Psoriatic Features (%) ([1]; percent of grafts/mice): (0%)

Question: For `O=C(Nc1c(Cl)cncc1Cl)c1ccc(OC(F)F)c(OCC2CC2)c1` [Roflumilast, 3-(cyclopropylmethoxy)-n-(3,5-dichloropyridin-4-yl)-4-(difluoromethoxy)-benzamide], which calculated water solubility [2] is on record?
Answer: Its calculated water solubility is 6.2 µg/mL.

— US20230310395A1, “TOPICAL ROFLUMILAST COMPOSITIONS AND USES THEREOF” (Sol-Gel Technologies Ltd., priority 2020, published 2023)
